The values below come from ChEMBL document CHEMBL1136293, “Synthesis and evaluation of tripeptidyl alpha-ketoamides as human rhinovirus 3C protease inhibitors” (Bioorg Med Chem Lett, 2003).

Test [1] deals with HeLa. The test can be described thus: Cytotoxicity against HeLa cells was determined by using XTT cytotoxicity assay. In kind it is functional. Particulars: Homo sapiens, read-out: TC50 (the source's name); call rule not given here.
Test [2] relates to HeLa. Kind of test: Antiviral activity against human rhinovirus-16 (HRV-16) in HeLa-cells using cell assay. In kind it is functional, cell-based.
A further test deals with rhinovirus B14. The test can be described thus: (§1) Antiviral activity against human rhinovirus-14 (HRV-14) in HeLa-cells using cell assay. It is filed as functional, organism-based, human rhinovirus type 14. The settings on record: Rhinovirus B.
Test [3] has as its target T1, Human rhinovirus A protease (Human rhinovirus sp., UniProt Q4U254).
T1 sequence (Q4U254 whole entry): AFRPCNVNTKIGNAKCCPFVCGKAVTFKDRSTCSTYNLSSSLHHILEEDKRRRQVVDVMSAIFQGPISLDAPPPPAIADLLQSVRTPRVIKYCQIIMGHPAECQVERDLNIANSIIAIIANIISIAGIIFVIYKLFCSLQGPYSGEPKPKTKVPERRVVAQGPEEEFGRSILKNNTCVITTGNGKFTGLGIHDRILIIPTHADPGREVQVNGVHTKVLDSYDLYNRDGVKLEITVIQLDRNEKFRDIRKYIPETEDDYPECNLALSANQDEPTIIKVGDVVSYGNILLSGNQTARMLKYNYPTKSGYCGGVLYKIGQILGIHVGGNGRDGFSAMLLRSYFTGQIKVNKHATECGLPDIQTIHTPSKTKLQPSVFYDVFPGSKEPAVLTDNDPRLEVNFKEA
Kind of test: Antiviral activity against human rhinovirus-14 (HRV-14) 3C protease using enzyme assay. It is filed as functional, rhinovirus B14.

Test [4] concerns HeLa. The description is as §1. In kind it is functional, cell-based.
The test system of test [5] is HeLa. Kind of test: Antiviral activity against human rhinovirus-16 (HRV-16) in HeLa-cells using cell assay; inactive. In kind it is functional, cell-based.
For test [6], the target named is T1, Human rhinovirus A protease. The test can be described thus: Antiviral activity against human rhinovirus-14 (HRV-14) 3C protease using enzyme assay; inactive. In kind it is functional, rhinovirus B14.

Consider `CCCC(NC(=O)C(Cc1ccccc1)NC(=O)[C@@H](NC(=O)OC(C)C)C(C)C)C(=O)C(=O)N[C@@H](C)c1ccccc1` (some centres not stated), for which the CC50 with HeLa [1] is 62 µM. The EC50 (commonly the midpoint of the concentration-response curve) in the test with HeLa [2] was found to be 10.1 µM; with rhinovirus B14, 1 µM. The Ki (commonly the equilibrium dissociation constant of an inhibitor or competing ligand from its target) in test [3] came to 0.5 µM.
In the case of `CCC[C@H](NC(=O)[C@H](Cc1ccccc1)NC(=O)[C@@H](NC(=O)OC(C)C)C(C)C)C(=O)C(=O)N[C@@H](C)c1ccccc1`, in the test with HeLa [1], the CC50 was more than 100 µM. The EC50 was approximately 10 µM in the test with HeLa [2] and 0.85 µM with rhinovirus B14. Besides, in test [3], the IC50 (usually the concentration that inhibits the measured activity by half) came to 0.17 µM. In test [3], this compound gave a Ki of 0.17 µM.
For the compound `CCC[C@H](NC(=O)[C@H](Cc1ccccc1)NC(=O)[C@@H](NC(=O)OC(C)C)C(C)C)C(=O)C(=O)N[C@H](C)c1ccccc1`, the midpoint of the response in the test on rhinovirus B14, the EC50, lay at 11.1 µM. The compound also registered a Ki in test [3] of 6.5 µM.
With `CCC[C@H](NC(=O)[C@H](Cc1ccccc1)NC(=O)[C@@H](NC(=O)OC(C)C)C(C)C)C(=O)C(=O)N[C@@H](C)C1CCCCC1`, the CC50 with HeLa [1] amounted to 54.6 µM. In the test with rhinovirus B14, the EC50 is more than 20 µM. Moreover, in test [3], the inhibition constant (Ki) was 6.5 µM.
Take `CCCC(NC(=O)C1CCCN1C(=O)[C@@H](NC(=O)OC(C)C)C(C)C)C(=O)C(=O)N[C@@H](C)c1ccccc1` (some centres not stated): the CC50 in the test on HeLa [1] is more than 100 µM. Moreover, the figures for the EC50 with HeLa [2] and in the test with rhinovirus B14 were 43.3 µM and 10.4 µM, respectively. This compound also showed a Ki in test [3] of 17.4 µM.
For the compound `CCC[C@H](NC(=O)[C@H](Cc1ccccc1)NC(=O)[C@@H](NC(=O)OC(C)(C)C)C(C)C)C(=O)N[C@@H](C)c1ccccc1`, the CC50 in the test on HeLa [1] is more than 100 µM. For the same compound, in the test with rhinovirus B14, the EC50 is more than 20 µM. In test [3], this compound showed a Ki of 7.4 µM.
Consider `CCC[C@H](NC(=O)[C@H](Cc1ccccc1)NC(=O)[C@@H](NC(=O)OC(C)C)C(C)C)C(=O)C(=O)NCc1ccccc1`, for which, in the test on HeLa [1], the CC50 was more than 100 µM. This compound had an IC50 in the test with HeLa [4] of 2.7 µM. The same compound showed an EC50 in the test with rhinovirus B14 of 5.3 µM. Further, the Ki in test [3] came to 4.6 µM.
With `CCC[C@H](NC(=O)[C@H](Cc1ccccc1)NC(=O)[C@@H](NC(=O)OC(C)(C)C)C(C)C)C(=O)NC[C@H](C)c1ccccc1`, the CC50 in the test on HeLa [1] was more than 100 µM. The EC50 in the test with rhinovirus B14 was more than 15 µM. In test [3], this compound gave a Ki of 29.1 µM.
Take `CCCC(NC(=O)C(Cc1ccc(F)cc1)NC(=O)[C@@H](NC(=O)OC(C)C)C(C)C)C(=O)C(=O)N[C@@H](C)c1ccccc1` (some centres not stated): the CC50 in the test on HeLa [1] is more than 100 µM. The EC50 turned out to be 37.3 µM with HeLa [2] and 2.1 µM in the test with rhinovirus B14. Besides, the Ki in test [3] stood at 1.36 µM.
`CCCC(NC(=O)[C@@H]1[C@H]2CC[C@H](F)[C@H]2CN1C(=O)[C@@H](NC(=O)OC(C)C)C(C)C)C(=O)C(=O)N[C@@H](C)c1ccccc1` (some centres not stated): the CC50 in the test on HeLa [1] was 82 µM. The midpoint of the response with rhinovirus B14, the EC50, lay at 5.8 µM. Affinity in test [3] was put at a Ki of 5.5 µM.
Taken in the same sequence, the figures for `CCC[C@H](NC(=O)[C@H](Cc1ccccc1)NC(=O)[C@@H](NC(=O)OC(C)(C)C)C(C)C)C(=O)C(=O)N[C@H](C)c1ccccc1` were 30.3 µM, 1.3 µM and 0.71 µM.
Consider `CCCC(NC(=O)C1(NC(=O)[C@@H](NC(=O)OC(C)C)C(C)C)CCCC1)C(=O)C(=O)N[C@@H](C)c1ccccc1` (some centres not stated), for which the EC50 result is “Not Active” with HeLa [5] and more than 20 µM in the test on rhinovirus B14. Further, in the test with HeLa [1], the CC50 is more than 100 µM. Besides, in test [6], the Ki result was “Not Active”.
For `CCCC(NC(=O)[C@@H]1[C@H]2CCC[C@H]2CN1C(=O)[C@@H](NC(=O)OC(C)C)C(C)(C)C)C(=O)C(=O)N[C@@H](C)c1ccccc1` (some centres not stated), the CC50 in the test with HeLa [1] stood at 57.8 µM. For the same compound, the EC50 with HeLa [2] came out at 25.7 µM; with rhinovirus B14, 7.7 µM.
With `CCCC(NC(=O)[C@@H]1[C@H]2CC[C@H](F)[C@H]2CN1C(=O)[C@@H](NC(=O)OC(C)C)C(C)(C)C)C(=O)C(=O)N[C@@H](C)c1ccccc1` (some centres not stated), the CC50 in the test on HeLa [1] is 60.4 µM. The concentration giving a half-maximal response (EC50) in the test on rhinovirus B14 turned out to be 10 µM. Also, the Ki in test [3] came out at 9.8 µM.
Turning to `CCCC(NC(=O)[C@@H]1[C@H]2CCC[C@H]2CN1C(=O)[C@@H](NC(=O)OC(C)C)C(C)C)C(=O)C(=O)N[C@@H](C)c1ccccc1` (some centres not stated), the CC50 in the test with HeLa [1] was found to be 65.4 µM. For the same compound, the EC50 in the test with HeLa [2] was approximately 10 µM; in the test on rhinovirus B14, 2.2 µM. The same compound displayed a Ki in test [3] of 3 µM.
